This is an account of results in patent US20260176282A1, “BICYCLIC COMPOUNDS AS CDK INHIBITORS” (BEONE MEDICINES I GMBH, priority 2023, published 2026).

As a reminder, the IC50 is the midpoint of a concentration-inhibition curve.

Read-outs that look alike come from different tables or passages of the source.

For one test, the target named is CDK2/Cyclin E1 (Homo sapiens, UniProt P24941). In words: CDK2/Cyclin E1 TR-FRET biochemical assay (0.060 mM ATP). The note with it: 120 minutes reaction. As for the experimental part: (§1) Compounds disclosed herein were tested for inhibition of CDK2/Cyclin E1 or CDK1/Cyclin B1 kinase in an assay based on the time-resolved fluorescence-resonance energy transfer (TR-FRET) methodology. The assay was carried out in 384-well low volume black plates in a reaction mixture containing CDK2/Cyclin E1 or CDK1/Cyclin B1, 0.060 mM ATP for CDK2/Cyclin E1 or 0.015 mM ATP for CDK1/Cyclin B1, 0.15 μM Rb (Ser780)-biotin substrate and 0-10 μM compound in buffer containing 50 mM HEPES pH7.0, 0.02% NaN3, 0.01% BSA, 0.1 mM Orthovanadate, 50 mM MgCl2, 1 mM DTT and 0.005% Tween-20. The kinase was incubated with compound for 60 minutes at room temperature and the reaction was initiated by the addition of ATP and Rb (Ser780)-biotin substrate. After reaction at room temperature for 120 minutes, an equal volume of stop/detection solution was added according to the manufacture's instruction (Cisbio Bioassays). The stop/detection solution contained Streptavidin-XL665 and Anti-pRb (Ser780) mAb-Eu Cryptate in Detection buffer (Cisbio Bioassays). Plates were incubated at room temperature for 60 minutes, and the TR-FRET signals (ex337 nm, em665 nm/620 nm) were recorded on a PHERAstar FSX plate reader (BMG Labtech). The inhibition percentage of CDK2/Cyclin E1 or CDK1/Cyclin B1 kinase activity in presence of increasing concentrations of compounds was calculated based on the ratio of fluorescence at 665 nm to that at 620 nm. The IC50 for each compound was derived from fitting the data to the four-parameter logistic equation by Dotmatics.
For orientation: In TR-FRET formats the signal depends on donor and acceptor labels being close together.

The next test deals with CDK1/Cyclin B1 (Homo sapiens, UniProt P06493). Kind of test: CDK1/Cyclin B1 TR-FRET biochemical assay (0.015 mM ATP). The note with it: 120 minutes reaction. The procedure:
as §1

Another test has as its system HEK-293 cells. Kind of test: HEK-293 cell cytotoxicity detection (CellTiter-Glo). In kind it is cell-based. The note with it: incubation of 72 h, CellTiter-Glo luminescence. The procedure:
HEK-293 cells were treated with compounds diluted in 0.4% DMSO, dilution was done according to the following protocol: (1) making 250× stock solution in DMSO from 10 mM by 4-fold dilution, total 8 doses were included; (2) making 2 solution in cell culture medium by transferring 1 μl 250× stock solution into 124 μl medium; (3) adding 50 μl of 2× solution to cells for incubation of 72 h.
25 μl of the CellTiter-Glo® Reagent [(PromegaCat #G9242)] was added to each well in the 96-well plate. The contents were mixed for 2 minutes on an orbital shaker to induce cell lysis. The plate was then allowed to incubate at room temperature for 10 minutes to stabilize luminescent signal. Luminescence was recorded on BMG PheraStar with luminescence protocol.
The IC50 value of a compound can be obtained by fitting the following equation: […]
Wherein, X and Y are known values, and IC50, Hillslope, Top and Bottom are the parameters obtained by fitting with software. Y is the inhibition percentage (calculated from the equation), X is the concentration of the compound; IC50 is the concentration of the compound when the 50% inhibition is reached. The smaller the IC50 value is, the stronger the inhibitory ability of the compound is. Vice versa, the higher the IC50 value is, the weaker the ability the inhibitory ability of the compound is; Hillslope represents the slope of the fitted curve, generally around 1*; Bottom represents the minimum value of the curve obtained by data fitting, which is generally 0%±20%; Top represents the maximum value of the curve obtained by data fitting, which is generally 100%±20%. The experimental data were fitted by calculating and analyzing with Dotmatics data analysis software.
On the technique in general: Cellular ATP, detected with luciferase, serves as a proxy for viable cell number.

Sequence of CDK1/Cyclin B1 (P06493 whole entry): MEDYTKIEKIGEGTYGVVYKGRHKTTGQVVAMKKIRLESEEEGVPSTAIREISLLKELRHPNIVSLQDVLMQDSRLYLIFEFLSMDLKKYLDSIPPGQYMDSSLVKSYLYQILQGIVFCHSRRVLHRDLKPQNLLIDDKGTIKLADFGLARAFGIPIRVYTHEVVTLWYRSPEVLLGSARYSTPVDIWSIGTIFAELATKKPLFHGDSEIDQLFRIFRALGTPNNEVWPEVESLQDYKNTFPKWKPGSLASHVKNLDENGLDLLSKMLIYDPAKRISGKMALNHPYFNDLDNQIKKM
Sequence of CDK1/Cyclin B1 (P14635 whole entry partner): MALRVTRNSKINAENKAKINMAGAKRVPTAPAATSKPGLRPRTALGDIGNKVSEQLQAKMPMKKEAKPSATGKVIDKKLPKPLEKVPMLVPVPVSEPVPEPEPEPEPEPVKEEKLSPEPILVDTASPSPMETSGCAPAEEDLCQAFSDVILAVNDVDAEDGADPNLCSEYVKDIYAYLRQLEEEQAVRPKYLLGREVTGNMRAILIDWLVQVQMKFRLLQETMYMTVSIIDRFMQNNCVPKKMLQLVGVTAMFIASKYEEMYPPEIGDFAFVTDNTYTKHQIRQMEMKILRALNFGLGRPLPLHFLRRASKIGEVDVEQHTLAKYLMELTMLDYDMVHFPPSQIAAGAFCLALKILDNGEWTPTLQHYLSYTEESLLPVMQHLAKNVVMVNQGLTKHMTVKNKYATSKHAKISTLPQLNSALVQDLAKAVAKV

On to `CC(C)NC(=O)O[C@H]1CC[C@@H](c2cc(Nc3cc4c(cc3F)S(=O)(=O)CC4)n[nH]2)C1` (relative stereo) [Example 1, cis-3-(3-((6-fluoro-1,1-dioxido-2,3-dihydrobenzo[b]thiophen-5-yl)amino)-1H-pyrazol-5-yl)cyclopentyl isopropylcarbamate], for which the IC50 on CDK2/Cyclin E1 is 49 nM; on CDK1/Cyclin B1 it was 1140 nM; in the test on HEK-293 cells (Homo sapiens, HEK293, 72 h), > 10000 nM.

On to `CCCNC(=O)O[C@H]1CC[C@@H](c2cc(Nc3ccc4c(c3F)S(=O)(=O)CC4)n[nH]2)C1` (relative stereo) [Example 4, cis-3-(3-((7-fluoro-1,1-dioxido-2,3-dihydrobenzo[b]thiophen-6-yl)amino)-1H-pyrazol-5-yl)cyclopentyl propylcarbamate], for which the IC50 on CDK2/Cyclin E1 was 17 nM; at CDK1/Cyclin B1, 191 nM; with HEK-293 cells (Homo sapiens, HEK293, 72 h), 8590 nM.

Turning to `CC1(NC(=O)O[C@H]2CC[C@@H](c3cc(Nc4ccc5c(c4F)S(=O)(=O)CC5)n[nH]3)C2)CC1` (relative stereo) [Example 6, cis-3-(3-((7-fluoro-1,1-dioxido-2,3-dihydrobenzo[b]thiophen-6-yl)amino)-1H-pyrazol-5-yl)cyclopentyl (1-methylcyclopropyl)carbamate], the IC50 amounted to 1.1 nM on CDK2/Cyclin E1; 20 nM on CDK1/Cyclin B1; 440 nM in the test with HEK-293 cells (Homo sapiens, HEK293, 72 h).

As for `CC(C)NC(=O)O[C@H]1CC[C@@H](c2cc(Nc3ccc4c(c3)CS(=O)(=O)C4)n[nH]2)C1` (relative stereo) [Example 7, cis-3-(3-((2,2-dioxido-1,3-dihydrobenzo[c]thiophen-5-yl)amino)-1H-pyrazol-5-yl)cyclopentyl isopropylcarbamate], the 50% inhibitory concentration (IC50) on CDK2/Cyclin E1 worked out at 1.1 nM; against CDK1/Cyclin B1, 12 nM; with HEK-293 cells (Homo sapiens, HEK293, 72 h), 684 nM.

For the compound `CC(C)NC(=O)O[C@H]1CC[C@@H](c2cc(Nc3ccc4c(c3F)CS(=O)(=O)C4)n[nH]2)C1` (relative stereo) [Example 8b, cis-3-(3-((4-fluoro-2,2-dioxido-1,3-dihydrobenzo[c]thiophen-5-yl)amino)-1H-pyrazol-5-yl)cyclopentyl isopropylcarbamate], the IC50 against CDK2/Cyclin E1 came out at 0.5 nM; at CDK1/Cyclin B1, 7.9 nM; in the test on HEK-293 cells (Homo sapiens, HEK293, 72 h), 462 nM.

In the case of `CC1(NC(=O)O[C@H]2CC[C@@H](c3cc(Nc4ccc5c(c4F)CS(=O)(=O)C5)n[nH]3)C2)CC1` (relative stereo) [Example 11, cis-3-(3-((4-fluoro-2,2-dioxido-1,3-dihydrobenzo[c]thiophen-5-yl)amino)-1H-pyrazol-5-yl)cyclopentyl (1-methylcyclopropyl)carbamate], the IC50 amounted to 0.3 nM on CDK2/Cyclin E1; 3.3 nM at CDK1/Cyclin B1; 317 nM in the test with HEK-293 cells (Homo sapiens, HEK293, 72 h).

As for `COCC(C)(C)NC(=O)O[C@H]1CC[C@@H](c2cc(Nc3ccc4c(c3F)CS(=O)(=O)C4)n[nH]2)C1` (relative stereo) [Example 14, cis-3-(3-((4-fluoro-2,2-dioxido-1,3-dihydrobenzo[c]thiophen-5-yl)amino)-1H-pyrazol-5-yl)cyclopentyl (1-methoxy-2-methylpropan-2-yl)carbamate], the IC50 on CDK2/Cyclin E1 was 0.6 nM; at CDK1/Cyclin B1, 10 nM; in the test with HEK-293 cells (Homo sapiens, HEK293, 72 h), > 10000 nM.

As to `CC(C)NC(=O)OC1CCC(c2cc(Nc3ccc4c(c3F)CCS4(=O)=O)n[nH]2)C1` (single isomer, unassigned) [Example 2a, cis-3-(3-((4-fluoro-1,1-dioxido-2,3-dihydrobenzo[b]thiophen-5-yl)amino)-1H-pyrazol-5-yl)cyclopentyl isopropylcarbamate], the IC50 against CDK2/Cyclin E1 was 16 nM; against CDK1/Cyclin B1 it was 591 nM; in the test on HEK-293 cells (Homo sapiens, HEK293, 72 h), > 10000 nM.

Turning to `CC(C)NC(=O)OC1CCC(c2cc(Nc3ccc4c(c3F)CCS4(=O)=O)n[nH]2)C1` (single isomer, unassigned) [Example 2b, cis-3-(3-((4-fluoro-1,1-dioxido-2,3-dihydrobenzo[b]thiophen-5-yl)amino)-1H-pyrazol-5-yl)cyclopentyl isopropylcarbamate], the IC50 is 4.8 nM against CDK2/Cyclin E1, 207 nM against CDK1/Cyclin B1 and > 10000 nM in the test on HEK-293 cells (read-out: HEK293 IC50).

Regarding `CC(C)NC(=O)OC1CCC(c2cc(Nc3ccc4c(c3F)S(=O)(=O)CC4)n[nH]2)C1` (single isomer, unassigned) [Example 3a, cis-3-(3-((7-fluoro-1,1-dioxido-2,3-dihydrobenzo[b]thiophen-6-yl)amino)-1H-pyrazol-5-yl)cyclopentyl isopropylcarbamate], the IC50 at CDK2/Cyclin E1 amounted to 4.1 nM; at CDK1/Cyclin B1, 132 nM; in the test with HEK-293 cells (read-out: HEK293 IC50), 1780 nM.

Turning to `CC(C)NC(=O)OC1CCC(c2cc(Nc3ccc4c(c3F)S(=O)(=O)CC4)n[nH]2)C1` (single isomer, unassigned) [Example 3b, cis-3-(3-((7-fluoro-1,1-dioxido-2,3-dihydrobenzo[b]thiophen-6-yl)amino)-1H-pyrazol-5-yl)cyclopentyl isopropylcarbamate], the figures for the IC50 at CDK2/Cyclin E1, against CDK1/Cyclin B1 and with HEK-293 cells (read-out: HEK293 IC50) were 1.9 nM, 31 nM and 677 nM, respectively.

On to `CC(C)NC(=O)O[C@@H]1CC[C@H](c2cc(Nc3ccc4c(c3F)CS(=O)(=O)C4)n[nH]2)C1` (single isomer, unassigned) [Example 8a, cis-3-(3-((4-fluoro-2,2-dioxido-1,3-dihydrobenzo[c]thiophen-5-yl)amino)-1H-pyrazol-5-yl)cyclopentyl isopropylcarbamate], for which the IC50 against CDK2/Cyclin E1 worked out at 0.7 nM; on CDK1/Cyclin B1, 30 nM; in the test on HEK-293 cells (Homo sapiens, HEK293, 72 h), 514 nM.

In the case of `CCCNC(=O)OC1CCC(c2cc(Nc3ccc4c(c3F)CS(=O)(=O)C4)n[nH]2)C1` (single isomer, unassigned) [Example 9a, cis-3-(3-((4-fluoro-2,2-dioxido-1,3-dihydrobenzo[c]thiophen-5-yl)amino)-1H-pyrazol-5-yl)cyclopentyl propylcarbamate], the IC50 at CDK2/Cyclin E1 was 0.8 nM; against CDK1/Cyclin B1, 50 nM; with HEK-293 cells (read-out: HEK293 IC50), > 10000 nM.

For `CCCNC(=O)OC1CCC(c2cc(Nc3ccc4c(c3F)CS(=O)(=O)C4)n[nH]2)C1` (single isomer, unassigned) [Example 9b, cis-3-(3-((4-fluoro-2,2-dioxido-1,3-dihydrobenzo[c]thiophen-5-yl)amino)-1H-pyrazol-5-yl)cyclopentyl propylcarbamate], the IC50 against CDK2/Cyclin E1 amounted to 0.7 nM; on CDK1/Cyclin B1, 12 nM; with HEK-293 cells (read-out: HEK293 IC50), 4410 nM.

In the case of `CC[C@H](C)NC(=O)OC1CCC(c2cc(Nc3ccc4c(c3F)S(=O)(=O)CC4)n[nH]2)C1` (stereo in doubt) [Example 5, cis-3-(3-((7-fluoro-1,1-dioxido-2,3-dihydrobenzo[b]thiophen-6-yl)amino)-1H-pyrazol-5-yl)cyclopentyl ((S)-sec-butyl)carbamate], the IC50 against CDK2/Cyclin E1 was 5 nM; against CDK1/Cyclin B1 it was 117 nM; with HEK-293 cells (Homo sapiens, HEK293, 72 h) it was 1650 nM.

On to `CC[C@H](C)NC(=O)OC1CCC(c2cc(Nc3ccc4c(c3F)CS(=O)(=O)C4)n[nH]2)C1` (stereo in doubt) [Example 10, cis-3-(3-((4-fluoro-2,2-dioxido-1,3-dihydrobenzo[c]thiophen-5-yl)amino)-1H-pyrazol-5-yl)cyclopentyl ((S)-sec-butyl)carbamate], for which the IC50 was 0.4 nM at CDK2/Cyclin E1; 5 nM against CDK1/Cyclin B1; 203 nM in the test on HEK-293 cells (Homo sapiens, HEK293, 72 h).
